# Data reported in patent US20070207204A1, “Dosage Form for Time-Varying Patterns of Drug Delivery” (ALZA CORPORATION, priority 2001, published 2007).
# Assay: Osmotic pressure of saturated solutions of osmotically effective compounds and mixtures (vapor pressure osmometer)
# Type: physicochemical
# Details: saturated solution in water at 37° C.; Model 302B Vapor Pressure Osmometer
# From the text: The term “osmagent”, as used herein, includes osmotically effective solutes, osmotically effective compounds, and osmotic agents. […] Osmotically effective compounds useful for the present purpose include magnesium sulfate, magnesium chloride, sodium chloride, lithium chloride, potassium sulfate, sodium carbonate, sodium sulfite, lithium sulfate, potassium chloride, calcium bicarbonate, sodium sulfate, calcium sulfate, potassium acid phosphate, calcium lactate, d-mannitol, urea, inositol, magnesium succinate, tartaric acid, carbohydrates such as raffinose, sucrose, glucose, maltodextrins, α-d-lactose monohydrate, and mixtures thereof. The osmotically effective compound in layer 18 can be in any physical form such as particle, crystal, pellet, tablet, strip, ground, pulverized, film, or granule. The osmotic pressure of saturated solutions of various osmotically effective compounds and for mixtures of osmotic compounds at 37° C. in water, is listed in Table 1. The osmotic pressure can be measured by a commercially available osmometer that measures the vapor pressure difference between pure water and the solution to be analyzed. According to standard thermodynamic principles, the vapor pressure difference is converted into osmotic pressure. In Table 1, osmotic pressures of from 20 atm to 500 atm are set forth. However, the invention includes the use of lower osmotic pressures, and higher osmotic pressures than from 20 atm to 500 atm. The osmometer used for the present measurements is Model 302B, Vapor Pressure Osmometer, manufactured by the Hewlett Packard Co., Avondale, Pa.
row,Compound,OSMOTIC PRESSURE (atm)
1,[Cl-].[K+] [Potassium Chloride],245
2,OC[C@H]1O[C@@](CO)(O[C@H]2O[C@H](CO)[C@@H](O)[C@H](O)[C@H]2O)[C@@H](O)[C@@H]1O [Sucrose],150
3,O=S(=O)([O-])[O-].[K+].[K+] [Potassium Sulfate],39
4,OC[C@@H](O)[C@@H](O)[C@H](O)[C@H](O)CO [Mannitol],38
5,O.O.O.O.O.O.O.O=P([O-])([O-])O.[Na+].[Na+] [Sodium Phosphate Dibasic-7H20],31
6,O=P([O-])([O-])O.[Na+].[Na+] [Sodium Phosphate Dibasic-Anhydrous],29
7,O.O.O.O.O.O.O.O.O.O.O.O.O=P([O-])([O-])[O-].[Na+].[Na+].[Na+] [Sodium Phosphate Tribasic-12H20],36
8,O=C(CO)[C@@H](O)[C@H](O)[C@H](O)CO [Fructose],355
9,O.O.O.O.O.O.O.O.O.O.O.O.O=P([O-])([O-])O.[Na+].[Na+] [Sodium Phosphate Dibasic-12H20],31
10,O.O=P([O-])(O)O.[Na+] [Sodium Phosphate Monobasic-H20],28
11,[Cl-].[Na+] [Sodium Chloride],356
